# Data: patent US9546139B2, “Pyridine carboxylic acid based compound used as a P2X1 and P2X3 receptor antagonist, a production method for the same and a composition comprising the same” (GWANGJU INSTITUTE OF SCIENCE AND TECHNOLOGY, priority 2010, dated 2017)
# Where two headings read alike, the source gives them in different places.
# Tests used:
# human P2X3 receptor = molecular target: T1, human P2X3 receptor (Homo sapiens, UniProt P56373); experiment: Two-electrode voltage clamp, ATP-induced ion current in Xenopus oocytes expressing human P2X3; type: cell-based; settings: for inhibition at 10 µM / inhibition at 0.1 µM: read-out: % inhibition hP2X3; for inhibition at 0.1 µM: 100 nM compound
# T1 construct: expressed in transfected cells; host or cells: Xenopus oocytes (cRNA injected); cDNA from the Max-Planck Institute laboratory (Dr. W. Stuhmer and Dr. F. Soto)
# T1 sequence (P56373 1-397): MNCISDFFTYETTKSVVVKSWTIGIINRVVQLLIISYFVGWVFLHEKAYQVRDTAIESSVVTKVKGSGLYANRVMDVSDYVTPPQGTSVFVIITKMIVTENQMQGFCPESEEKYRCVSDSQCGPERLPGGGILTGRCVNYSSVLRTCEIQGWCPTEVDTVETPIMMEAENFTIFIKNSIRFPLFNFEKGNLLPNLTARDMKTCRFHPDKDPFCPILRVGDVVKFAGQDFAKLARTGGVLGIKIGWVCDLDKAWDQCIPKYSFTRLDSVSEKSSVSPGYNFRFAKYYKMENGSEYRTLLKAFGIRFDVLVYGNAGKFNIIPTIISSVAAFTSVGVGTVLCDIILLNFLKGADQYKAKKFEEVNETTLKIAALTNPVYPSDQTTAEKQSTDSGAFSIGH
# Experimental: Antagonistic Activity at Recombinant Mouse P2X1 and Human P2X3 Receptors
# (§1) Xenopus oocytes were harvested and prepared with method as previously described in publications. Defolliculated oocytes were injected cytosolically with mouse P2X1 and human P2X3 receptor cRNA ([…], 1 μg/mL), respectively, incubated for 24 hrs at 18° C. in Barth's solution and kept for up to 12 days at 4° C. until used in electrophysiological experiments. ATP-activated membrane currents (Vh=−70 mV) were recorded from cRNA-injected oocytes using the twin-electrode voltage-clamp technique (Axoclamp 2B amplifier). Voltage recording (1-2 MΩ tip resistance) and current-recording microelectrodes (5 MΩ tip resistance) were filled with 3.0 M KCl. Oocytes were held in an electrophysiological chamber and superfused with Ringer's solution (5 mL/min, at 18° C.) containing (mM) NaCl, 110; KCl, 2.5; HEPES, 5; BaCl2, 1.8, adjusted to pH 7.5. ATP was superfused over the oocytes for 60-120s then washed out for a period of 20 min. For inhibition curves, data were normalized to the current evoked by ATP, at pH 7.5. Test substances were added for 20 min prior to ATP exposure; all peptides were tested for reversibility of their effects. The concentration required to inhibit the ATP response by 50% (IC50) was taken from Hill plots constructed using the formula: log(I/Imax−1), where I is the current evoked by ATP in the presence of an antagonist. Data are presented as mean±SEM (n=4) for the data from different batches of oocytes.
# mouse P2X1 receptor = molecular target: T2, mouse P2X1 receptor (Mus musculus, UniProt P51576); experiment: Two-electrode voltage clamp, ATP-induced ion current in Xenopus oocytes expressing mouse P2X1; type: cell-based; settings: for inhibition at 10 µM / inhibition at 0.1 µM: read-out: % inhibition mP2X1; for antagonistic activity, mouse P2X1 versus human P2X3: comparison of the two receptors
# T2 construct: EST clones containing full-length cDNAs of mouse P2X1 (clone ID: 4189541) and human P2X7 receptor (clone ID: 5286944); host or cells: Xenopus oocytes (cRNA injected)
# T2 sequence (P51576 1-399): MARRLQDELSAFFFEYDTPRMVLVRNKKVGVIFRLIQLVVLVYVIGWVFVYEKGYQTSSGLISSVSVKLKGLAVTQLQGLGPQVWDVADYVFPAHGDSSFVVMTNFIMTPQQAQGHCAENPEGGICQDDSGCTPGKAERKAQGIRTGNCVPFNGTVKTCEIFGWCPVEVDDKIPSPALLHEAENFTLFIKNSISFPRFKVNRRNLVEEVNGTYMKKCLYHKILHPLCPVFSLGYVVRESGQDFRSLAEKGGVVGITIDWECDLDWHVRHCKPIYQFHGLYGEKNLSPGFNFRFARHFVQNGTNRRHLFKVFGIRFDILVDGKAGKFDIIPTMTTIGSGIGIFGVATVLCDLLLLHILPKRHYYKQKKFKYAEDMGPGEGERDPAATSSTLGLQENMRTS
# Experimental: 1-1. Antagonistic Activity at Recombinant Mouse P2X1 and Human P2X3 Receptors
# as §1
# [1] = concentration-inhibitory curve, 2 μM ATP (FIG. 1C, FIG. 2B)
# [2] = Table 1, 10 μM compound, ion current induced by 2 μM ATP, mean ± SEM, n = 4
# [3] = Table 1, 100 nM compound, ion current induced by 2 μM ATP, mean ± SEM, n = 4
# [4] = concentration-inhibitory curve, 2 μM ATP (FIG. 1B, FIG. 2A)
# [5] = concentration-inhibitory curve, 2 μM ATP, read-out: IC50 value (FIG. 1B)
# [6] = concentration-response curve, 2 μM ATP, mean of four observations, read-out: IC50 value
# [7] = Table 1, ion current induced by 2 μM ATP, mean ± SEM, n = 4
# [8] = concentration-inhibitory curve, 2 μM ATP, read-out: IC50 value (FIG. 1C)
structure (smiles),measurement,setting,value
"O=C(O)c1cc(C(=O)O)c(C(=O)N(Cc2cccc(Oc3ccccc3)c2)[C@H]2CCCc3ccccc32)cc1C(=O)O [A-317491, reference compound]",Hill coefficient,human P2X3 receptor; [1],−0.68±0.18
"Cc1nc(N=Nc2cc(S(=O)(=O)O)ccc2S(=O)(=O)O)c(COP(=O)(O)O)c(C=O)c1O [Compound 3, pyridoxal-phosphate-6-azophenyl-2′,5′-disulfonic acid, reference compound]",% inhibition mP2X1,mouse P2X1 receptor,62.4 ± 3.1%
same,Hill coefficient,mouse P2X1 receptor,−1.09±0.13
same,IC50,mouse P2X1 receptor; read-out: IC50 value (FIG. 1B),30.7 ± 5.12 nM
same,% inhibition hP2X3,human P2X3 receptor,48.3 ± 5.6%
same,Hill coefficient,human P2X3 receptor,−1.11±0.27
same,IC50,human P2X3 receptor; read-out: IC50 value (FIG. 1C),96.2 ± 21 nM
"Cc1ncc(CCC(=O)O)c(C=O)c1O [Compound 13, 3-(4-formyl-5-hydroxy-6-methylpyridin-3-yl) propanoic acid]",inhibition at 10 µM,mouse P2X1 receptor; [2],19.5 ± 5.1%
same,inhibition at 10 µM,human P2X3 receptor; [2],22.3 ± 8.1%
"Cc1ncc(CCC(=O)O)c(C(=O)O)c1O [Compound 14, 5-(2-Carboxyethyl)-3-hydroxy-2-methyl isonicotinic acid]",inhibition at 10 µM,mouse P2X1 receptor; [2],14.8 ± 1.7%
same,inhibition at 10 µM,human P2X3 receptor; [2],15.2 ± 7.7%
"Cc1ncc(C=CC(=O)O)c(C=O)c1O [Compound 17, 3-(4-Formyl-5-hydroxy-6-methylpyridin-3-yl)acrylic acid]",inhibition at 10 µM,mouse P2X1 receptor; [2],7.4 ± 1.9%
same,inhibition at 10 µM,human P2X3 receptor; [2],9.3 ± 2.3%
"Cc1ncc(C=CC(=O)O)c(C(=O)O)c1O [Compound 18, 5-(2-Carboxyvinyl)-3-hydroxy-2-methylisonicotinic acid]",% inhibition mP2X1,mouse P2X1 receptor; [2],inactive
same,% inhibition hP2X3,human P2X3 receptor; [2],inactive
"Cc1ncc(CN(CCC(=O)O)Cc2ccccc2)c(C=O)c1O [Compound 22, 3-(Benzyl((4-formyl-5-hydroxy-6-methylpyridin-3-yl)methyl)amino)propanoic acid]",% inhibition mP2X1,mouse P2X1 receptor; [2],inactive
same,% inhibition hP2X3,human P2X3 receptor; [2],inactive
"Cc1ncc(CN(CCC(=O)O)Cc2ccccc2)c(C(=O)O)c1O [Compound 23, 5-((Benzyl(2-carboxyethyl)amino)methyl)-3-hydroxy-2-methylisonicotinic acid]",% inhibition mP2X1,mouse P2X1 receptor; [2],inactive
same,% inhibition hP2X3,human P2X3 receptor; [2],inactive
"Cc1nc(N=Nc2cc(S(=O)(=O)O)ccc2S(=O)(=O)O)c(CCC(=O)O)c(C=O)c1O [Compound 24, 3-(2-((2,5-Disulfophenyl)diazenyl)-4-formyl-5-hydroxy-6-methylpyridin-3-yl)propanoic acid]",inhibitory activity to the ATP-induced ion current,"mouse P2X1 receptor; FIG. 1A, 2 μM ATP, two concentrations",concentration-dependent inhibitory activity
same,inhibition at 0.1 µM,mouse P2X1 receptor; [3],58.6 ± 4.5%
same,Hill coefficient,mouse P2X1 receptor; [4],−1.13±0.40
same,IC50,mouse P2X1 receptor; [5],70.5 ± 2.72 nM
same,IC50,mouse P2X1 receptor; [6],70 nM
same,inhibition at 0.1 µM,human P2X3 receptor; [7],40.1 ± 8.4%
same,Hill coefficient,human P2X3 receptor; [1],−1.18±0.25
same,IC50,human P2X3 receptor; [8],105 ± 17.5 nM
same,IC50,human P2X3 receptor; [6],105 nM
"Cc1nc(N=Nc2cc(S(=O)(=O)O)ccc2S(=O)(=O)O)c(CCC(=O)O)c(C(=O)O)c1O [Compound 25, 3-(2-Carboxyethyl)-2-((2,5-disulfophenyl)diazenyl)-5-hydroxy-6-methylisonicotinic acid]",% inhibition mP2X1,mouse P2X1 receptor; [3],60.2 ± 4.9%
same,inhibition at 0.1 µM,mouse P2X1 receptor; [3],60%
same,"antagonistic activity, mouse P2X1 versus human P2X3",mouse P2X1 receptor,more powerful antagonistic activity to mouse P2X1 than human P2X3 receptor
same,inhibition at 0.1 µM,human P2X3 receptor; [7],45.7 ± 10.8%
"Cc1nc(N=Nc2ccc(S(=O)(=O)O)cc2)c(CCC(=O)O)c(C=O)c1O [Compound 26, 3-(4-Formyl-5-hydroxy-6-methyl-2-((4-sulfophenyl)diazenyl)pyridin-3-yl)propanoic acid]",inhibition at 0.1 µM,mouse P2X1 receptor; [3],41.8 ± 9.8%
same,inhibition at 0.1 µM,human P2X3 receptor; [7],46.5 ± 11.2%
"Cc1nc(N=Nc2ccc(S(=O)(=O)O)cc2)c(CCC(=O)O)c(C(=O)O)c1O [Compound 27, 3-(2-carboxyethyl)-5-hydroxy-6-methyl-2-((4-sulfophenyl)diazenyl)isonicotinic acid]",inhibition at 0.1 µM,mouse P2X1 receptor; [3],57.6 ± 8.8%
same,"antagonistic activity, mouse P2X1 versus human P2X3",mouse P2X1 receptor,more powerful antagonistic activity to mouse P2X1 than human P2X3 receptor
same,inhibition at 0.1 µM,human P2X3 receptor; [7],37.6 ± 6.9%
"Cc1nc(N=Nc2ccc(C(=O)O)cc2)c(CCC(=O)O)c(C=O)c1O [Compound 28, 4-((3-(2-carboxyethyl)-4-formyl-5-hydroxy-6-methylpyridin-2-yl)diazenyl)benzoic acid]",inhibition at 0.1 µM,mouse P2X1 receptor; [3],48.5 ± 9.5%
same,Hill coefficient,mouse P2X1 receptor; [4],−1.20±0.45
same,IC50,mouse P2X1 receptor; [5],130 ± 13.6 nM
same,IC50,mouse P2X1 receptor; [6],130 nM
same,inhibition at 0.1 µM,human P2X3 receptor; [7],56.3 ± 8.8%
same,Hill coefficient,human P2X3 receptor; [1],−1.08±0.02
same,IC50,human P2X3 receptor; [8],79.8 ± 1.21 nM
same,IC50,human P2X3 receptor; [6],80 nM
"Cc1nc(N=Nc2ccc(C(=O)O)cc2)c(CCC(=O)O)c(C(=O)O)c1O [Compound 29, 3-(2-carboxyethyl)-2-((4-carboxyphenyl)diazenyl)-5-hydroxy-6-methy lisonicotinic acid]",inhibition at 0.1 µM,mouse P2X1 receptor; [3],51.7 ± 7.4%
same,"antagonistic activity, mouse P2X1 versus human P2X3",mouse P2X1 receptor,more powerful antagonistic activity to mouse P2X1 than human P2X3 receptor
same,inhibition at 0.1 µM,human P2X3 receptor; [7],25.7 ± 6.9%
"Cc1nc(/N=N/c2ccc(C(=O)O)cc2)c(COP(=O)(O)O)c(C=O)c1O [MRS2159, reference compound]",Hill coefficient,mouse P2X1 receptor; [4],−1.13±0.20
